How the values were obtained:
[1] = test system: IPOHE (Morningglory, Ivyleaf); assay: Preemergence herbicidal evaluation; format: in vivo, Ipomoea hederacea; conditions: rated 4-5 weeks after treatment
How it was run: (§1)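 Herbicidal effect scored visually, 0-9, at 4 to 5 weeks against a control; compound applied preemergence by aqueous acetone spray to seeded soil at about 0.0156 to 0.500 kg/ha.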

ZEAMX (Corn, Field) [2] = assay: Preemergence herbicidal evaluation; format: in vivo, Zea mays; conditions: rated 4-5 weeks after treatment
How it was run: as §1

ORYSAT (Rice, Tebonnet) = assay: Preemergence herbicidal evaluation; format: in vivo, Oryza sativa, (L.) Tebonnet; conditions: rated 4-5 weeks after treatment
How it was run: as §1

ZEAMX (Corn, Field) [3] = assay: Postemergence herbicidal evaluation; format: in vivo, Zea mays; conditions: postemergence
How it was run: (§2)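 Visual 0-9 injury score (stand, vigor, malformation, size, chlorosis, appearance vs untreated) taken four to five weeks post-spray, averaged across repeat tests. Test plants about two weeks old; foliar spray of acetone/water (1:1) with 0.5% surfactant delivering ~0.0156-0.500 kg active/ha.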

[4] = test system: ECHORC (Watergrass (Calif.)); assay: Postemergence weed control under flooded paddy conditions; format: in vivo, Echinochloa oryzoides; conditions: postemergence weeds, 3-4 weeks after treatment
How it was run: (§3)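 Flood-water application, about 0.0313–0.500 kg/ha a.i. in aqueous/acetone 50/50 v/v; water depth 1.5–3 cm throughout. Weeds 3–5 cm, rice 1.5–2.5 leaf. Greenhouse; 0–9 visual rating vs control at 3–4 wk.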

CASOB (Sicklepod) = assay: Postemergence herbicidal evaluation; format: in vivo, Cassia obtusifolia; conditions: postemergence
How it was run: as §2

AMBEL (Ragweed, Common) = assay: Preemergence herbicidal evaluation; format: in vivo, Ambrosia artemisifolia; conditions: rated 4-5 weeks after treatment
How it was run: as §1

[5] = test system: CHEAL (Lambsquarters, Common); assay: Preemergence herbicidal evaluation; format: in vivo, Chenopodium album; conditions: rated 4-5 weeks after treatment
How it was run: as §1

GALAP (Galium) = assay: Postemergence herbicidal evaluation; format: in vivo, Galium aparine; conditions: postemergence
How it was run: as §2

CYPSE (Flatsedge) [6] = assay: Postemergence weed control under flooded paddy conditions; format: in vivo, Cyperus serotinus; conditions: postemergence weeds, 3-4 weeks after treatment
How it was run: as §3

CYPIR (Rice Flatsedge) = assay: Preemergence weed control under flooded paddy conditions; format: in vivo, Cyperus iria; conditions: rated 3-4 weeks after treatment
How it was run: (§4)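 Visual injury scored 0-9 against control three to four weeks post-treatment, greenhouse-grown. Application: acetone/water (50/50) solutions dosed directly into flood water (1.5-3 cm over silt loam, planted top 0.5 cm), roughly 0.0313 to 0.500 kg/ha active ingredient.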

[7] = test system: ECHORC (Watergrass (Calif.)); assay: as above; format: in vivo, Echinochloa oryzoides; conditions: rated 3-4 weeks after treatment
How it was run: as §4

[8] = test system: TRZAWR (Wheat, Winter, cv Riband); assay: Preemergence herbicidal evaluation; format: in vivo, Triticum aestivum; conditions: rated 4-5 weeks after treatment
How it was run: as §1

CYPSE (Flatsedge) [9] = assay: Preemergence weed control under flooded paddy conditions; format: in vivo, Cyperus serotinus; conditions: rated 3-4 weeks after treatment
How it was run: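 Values are visual 0-9 scores against a control for a preemergence application into paddy flood water at about 0.0313 to 0.500 kg/ha. Greenhouse duration was three to four weeks.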

CCOC(=O)CN1C(=O)C2(CC2)SC1=Nc1cc(-n2c(=O)cc(C(F)(F)F)n(C)c2=O)c(F)cc1Cl [Compound 15, Ethyl 5-{{2-chloro-5-[3,6-dihydro-3-methyl-2,6-dioxo-4-(trifluoromethyl)-1(2H)-pyrimidinyl]-4-fluorophenyl}imino}-7-oxo-4-thia-6-azaspiro[2.4]-heptane-6-acetate]
IPOHE preemergence herbicidal rating ([1]; rate 0.0156 kg/ha): 1.0 | IPOHE preemergence herbicidal rating ([1]; rate 0.0313 kg/ha): 1.5 | IPOHE preemergence herbicidal rating ([1]; rate 0.0625 kg/ha): 1.5 | IPOHE preemergence herbicidal rating ([1]; rate 0.1250 kg/ha): 7.0 | IPOHE preemergence herbicidal rating ([1]; rate 0.2500 kg/ha): 9.0 | ZEAMX preemergence herbicidal rating (ZEAMX (Corn, Field) [2]; rate 0.0156 kg/ha): 1.0 | ZEAMX preemergence herbicidal rating (ZEAMX (Corn, Field) [2]; rate 0.0313 kg/ha): 1.0 | ZEAMX preemergence herbicidal rating (ZEAMX (Corn, Field) [2]; rate 0.0625 kg/ha): 2.5 | ZEAMX preemergence herbicidal rating (ZEAMX (Corn, Field) [2]; rate 0.1250 kg/ha): 3.0 | ZEAMX preemergence herbicidal rating (ZEAMX (Corn, Field) [2]; rate 0.2500 kg/ha): 5.0 | ORYSAT preemergence herbicidal rating (ORYSAT (Rice, Tebonnet); rate 0.0156 kg/ha): 0.0 | ORYSAT preemergence herbicidal rating (ORYSAT (Rice, Tebonnet); rate 0.0313 kg/ha): 0.0 | ORYSAT preemergence herbicidal rating (ORYSAT (Rice, Tebonnet); rate 0.0625 kg/ha): 0.5 | ORYSAT preemergence herbicidal rating (ORYSAT (Rice, Tebonnet); rate 0.1250 kg/ha): 1.0 | ORYSAT preemergence herbicidal rating (ORYSAT (Rice, Tebonnet); rate 0.2500 kg/ha): 1.5 | ZEAMX herbicidal rating (ZEAMX (Corn, Field) [3]; rate 0.0156 kg/ha): 5.0 | ZEAMX herbicidal rating (ZEAMX (Corn, Field) [3]; rate 0.0313 kg/ha): 6.0 | ZEAMX herbicidal rating (ZEAMX (Corn, Field) [3]; rate 0.0625 kg/ha): 7.0 | ZEAMX herbicidal rating (ZEAMX (Corn, Field) [3]; rate 0.1250 kg/ha): 7.5 | Herbicidal rating ECHORC ([4]; rate 0.0313 kg/ha): 6.0 | Herbicidal rating ECHORC ([4]; rate 0.0625 kg/ha): 9.0 | Herbicidal rating ECHORC ([4]; rate 0.1250 kg/ha): 9.0 | Herbicidal rating ECHORC ([4]; rate 0.2500 kg/ha): 9.0 | CASOB herbicidal rating (CASOB (Sicklepod); rate 0.0156 kg/ha): 0.0 | CASOB herbicidal rating (CASOB (Sicklepod); rate 0.0313 kg/ha): 0.0 | CASOB herbicidal rating (CASOB (Sicklepod); rate 0.0625 kg/ha): 0.0 | CASOB herbicidal rating (CASOB (Sicklepod); rate 0.1250 kg/ha): 4.0 | AMBEL preemergence herbicidal rating (AMBEL (Ragweed, Common); rate 0.0156 kg/ha): 0.5 | AMBEL preemergence herbicidal rating (AMBEL (Ragweed, Common); rate 0.0313 kg/ha): 1.0 | AMBEL preemergence herbicidal rating (AMBEL (Ragweed, Common); rate 0.0625 kg/ha): 1.5 | AMBEL preemergence herbicidal rating (AMBEL (Ragweed, Common); rate 0.1250 kg/ha): 3.0 | AMBEL preemergence herbicidal rating (AMBEL (Ragweed, Common); rate 0.2500 kg/ha): 9.0 | CHEAL preemergence herbicidal rating ([5]; rate 0.0156 kg/ha): 6.5 | CHEAL preemergence herbicidal rating ([5]; rate 0.0313 kg/ha): 9.0 | CHEAL preemergence herbicidal rating ([5]; rate 0.0625 kg/ha): 9.0 | CHEAL preemergence herbicidal rating ([5]; rate 0.1250 kg/ha): 9.0 | CHEAL preemergence herbicidal rating ([5]; rate 0.2500 kg/ha): 9.0 | GALAP herbicidal rating (GALAP (Galium); rate 0.0156 kg/ha): 0.0 | GALAP herbicidal rating (GALAP (Galium); rate 0.0313 kg/ha): 0.0 | GALAP herbicidal rating (GALAP (Galium); rate 0.0625 kg/ha): 3.0 | GALAP herbicidal rating (GALAP (Galium); rate 0.1250 kg/ha): 6.0 | Herbicidal rating CYPSE (CYPSE (Flatsedge) [6]; rate 0.0313 kg/ha): 0.0 | Herbicidal rating CYPSE (CYPSE (Flatsedge) [6]; rate 0.0625 kg/ha): 0.0 | Herbicidal rating CYPSE (CYPSE (Flatsedge) [6]; rate 0.1250 kg/ha): 0.0 | Herbicidal rating CYPSE (CYPSE (Flatsedge) [6]; rate 0.2500 kg/ha): 0.0 | Herbicidal rating CYPIR (CYPIR (Rice Flatsedge); 0.0313 kg/ha): 2.0 | Herbicidal rating CYPIR (CYPIR (Rice Flatsedge); 0.0625 kg/ha): 2.0 | Herbicidal rating CYPIR (CYPIR (Rice Flatsedge); 0.1250 kg/ha): 6.0 | Herbicidal rating CYPIR (CYPIR (Rice Flatsedge); 0.2500 kg/ha): 7.0 | Herbicidal rating ECHORC ([7]; 0.0313 kg/ha): 6.0 | Herbicidal rating ECHORC ([7]; 0.0625 kg/ha): 9.0 | Herbicidal rating ECHORC ([7]; 0.1250 kg/ha): 9.0 | Herbicidal rating ECHORC ([7]; 0.2500 kg/ha): 9.0 | TRZAWR preemergence herbicidal rating ([8]; rate 0.0156 kg/ha): 0.0 | TRZAWR preemergence herbicidal rating ([8]; rate 0.0313 kg/ha): 0.0 | TRZAWR preemergence herbicidal rating ([8]; rate 0.0625 kg/ha): 0.0 | TRZAWR preemergence herbicidal rating ([8]; rate 0.1250 kg/ha): 5.0 | TRZAWR preemergence herbicidal rating ([8]; rate 0.2500 kg/ha): 5.0 | Herbicidal rating CYPSE (CYPSE (Flatsedge) [9]; 0.0313 kg/ha): 0.0 | Herbicidal rating CYPSE (CYPSE (Flatsedge) [9]; 0.0625 kg/ha): 0.0 | Herbicidal rating CYPSE (CYPSE (Flatsedge) [9]; 0.1250 kg/ha): 0.0 | Herbicidal rating CYPSE (CYPSE (Flatsedge) [9]; 0.2500 kg/ha): 0.0
